What is called IC50 is the concentration that inhibits the measured activity by half.

The target of this assay is T1, TLR7 (Homo sapiens, UniProt Q9NYK1).
T1 construct: Fresh blood was collected from normal human donors; endogenous in cells; host or cells: human PBMCs from fresh donor blood
T1 sequence (Q9NYK1 27-1049): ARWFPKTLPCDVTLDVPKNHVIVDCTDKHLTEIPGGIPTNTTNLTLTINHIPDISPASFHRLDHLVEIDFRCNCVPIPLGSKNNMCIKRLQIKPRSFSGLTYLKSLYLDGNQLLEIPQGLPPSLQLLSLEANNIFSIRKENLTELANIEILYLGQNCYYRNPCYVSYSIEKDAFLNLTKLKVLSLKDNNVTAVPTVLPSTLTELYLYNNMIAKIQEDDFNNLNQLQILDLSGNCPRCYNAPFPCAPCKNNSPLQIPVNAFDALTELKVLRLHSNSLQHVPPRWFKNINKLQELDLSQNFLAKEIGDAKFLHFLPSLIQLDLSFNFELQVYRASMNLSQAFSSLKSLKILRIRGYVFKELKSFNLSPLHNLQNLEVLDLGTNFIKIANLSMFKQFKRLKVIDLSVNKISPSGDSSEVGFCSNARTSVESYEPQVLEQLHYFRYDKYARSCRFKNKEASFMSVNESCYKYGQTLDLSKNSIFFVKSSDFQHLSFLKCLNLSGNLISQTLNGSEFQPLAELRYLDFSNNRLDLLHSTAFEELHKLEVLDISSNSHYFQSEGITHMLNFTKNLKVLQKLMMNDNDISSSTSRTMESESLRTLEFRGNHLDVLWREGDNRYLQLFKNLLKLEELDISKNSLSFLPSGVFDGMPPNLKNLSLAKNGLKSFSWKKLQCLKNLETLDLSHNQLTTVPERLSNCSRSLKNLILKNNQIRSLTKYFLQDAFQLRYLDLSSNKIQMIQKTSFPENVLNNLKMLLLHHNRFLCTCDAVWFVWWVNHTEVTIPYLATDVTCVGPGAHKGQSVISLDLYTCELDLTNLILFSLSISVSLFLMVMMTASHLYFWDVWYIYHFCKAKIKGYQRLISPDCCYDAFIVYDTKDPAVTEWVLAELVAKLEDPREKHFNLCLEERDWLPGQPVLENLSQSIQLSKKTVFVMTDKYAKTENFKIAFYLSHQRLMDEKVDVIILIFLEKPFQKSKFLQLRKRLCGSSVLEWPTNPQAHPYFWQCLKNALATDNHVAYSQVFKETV
Kind of assay: huPBMC TLR7 Antagonist IFNα Assay. The assay is classed as cell-based. The note with it: human PBMCs stimulated with ssRNA40 10 μg/mL (DOTAP), 14-16 hrs; IFNα2b AlphaLISA read-out. The essentials: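 Human PBMCs from fresh donor blood (150,000 cells/well) stimulated 14–16 h at 37 °C with DOTAP-complexed ssRNA40 (final 1 μg/ml for TLR8, 10 μg/mL for TLR7) or ODN2216 (final 0.3 μM, TLR9), 0.25% DMSO, ten-point 1/3 compound dilutions. Supernatant IL-6 read by HTRF (TLR8); IFNα by IFNα2b AlphaLISA (TLR7/TLR9).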
A general note: Bead proximity is the source of the signal in Alpha formats.
Regarding `CCNCC(=O)NC12CCC(Cn3nc(C)c4c3CCN(c3nc(C)nc5c(C)nn(C)c35)C4)(CC1)CC2` [compound 22, 2-(ethylamino)-N-(4-((3-methyl-5-(1,3,5-trimethyl-1H-pyrazolo[4,3-c]pyrimidin-7-yl)-4,5,6,7-tetrahydro-1H-pyrazolo[4,3-c]pyridin-1-yl)methyl)bicyclo[2.2.2]octan-1-yl)acetamide], the IC50 turned out to be 33 nM.

Turning to `Cc1cc(N2CCc3c(c(C)nn3CC34CCC(NCC(=O)N5CCCC5)(CC3)CC4)C2)c2cnn(C)c2n1` [compound 106, 2-((4-((5-(1,6-dimethyl-1H-pyrazolo[3,4-b]pyridin-4-yl)-3-methyl-4,5,6,7-tetrahydro-1H-pyrazolo[4,3-c]pyridin-1-yl)methyl)bicyclo[2.2.2]octan-1-yl)amino)-1-(pyrrolidin-1-yl)ethanone], the IC50 was determined as 63 nM.

Consider `Cc1nc(N2CCc3c(c(C)nn3CC34CCC(N5CCCC5)(CC3)CC4)C2)c2c(n1)c(C)nn2C` [compound 17, 1,3,5-trimethyl-7-(3-methyl-1-((4-(pyrrolidin-1-yl)bicyclo[2.2.2]octan-1-yl)methyl)-6,7-dihydro-1H-pyrazolo[4,3-c]pyridin-5(4H)-yl)-1H-pyrazolo[4,3-d]pyrimidine], for which the IC50 stood at 258 nM.

Regarding `Cc1nc(N2CCc3c(c(C)nn3CC34CCC(N5CCCC5)(CC3)CC4)C2)c2cn[nH]c2n1` [compound 30, 6-methyl-4-(3-methyl-1-((4-(pyrrolidin-1-yl)bicyclo[2.2.2]octan-1-yl)methyl)-6,7-dihydro-1H-pyrazolo[4,3-c]pyridin-5(4H)-yl)-1H-pyrazolo[3,4-d]pyrimidine], the concentration for half-maximal inhibition (IC50) came to 10 nM.

Turning to `Cc1nc(N2CCc3c(c(C)nn3CC34CCC(NCC5(CO)COC5)(CC3)CC4)C2)c2c(n1)c(C)nn2C` [compound 31, (3-(((4-((3-methyl-5-(1,3,5-trimethyl-1H-pyrazolo[4,3-d]pyrimidin-7-yl)-4,5,6,7-tetrahydro-1H-pyrazolo[4,3-c]pyridin-1-yl)methyl)bicyclo[2.2.2]octan-1-yl)amino)methyl)oxetan-3-yl)methanol], the IC50 amounted to 13 nM.

With `Cc1cc(N2CCc3c(c(C)nn3CC34CCC(N5C[C@@H](C)O[C@H](C)C5)(CC3)CC4)C2)c2cnn(C)c2n1` [compound 113, (2R,6R)-4-(4-((5-(1,6-dimethyl-1H-pyrazolo[3,4-b]pyridin-4-yl)-3-methyl-4,5,6,7-tetrahydro-1H-pyrazolo[4,3-c]pyridin-1-yl)methyl)bicyclo[2.2.2]octan-1-yl)-2,6-dimethylmorpholine], the IC50 is 53 nM.

For `CNCCC(=O)NC12CCC(Cn3nc(C)c4c3CCN(c3cc(C)nc5c3cnn5C)C4)(CC1)CC2` [compound 142, N-(4-((5-(1,6-dimethyl-1H-pyrazolo[3,4-b]pyridin-4-yl)-3-methyl-4,5,6,7-tetrahydro-1H-pyrazolo[4,3-c]pyridin-1-yl)methyl)bicyclo[2.2.2]octan-1-yl)-3-(methylamino)propanamide], the IC50 is 47 nM.

`Cc1cc(N2CCc3c(c(C)nn3CC34CCC(NCC5(CO)COC5)(CC3)CC4)C2)c2cnn(C)c2n1` [compound 137, (3-(((4-((5-(1,6-dimethyl-1H-pyrazolo[3,4-b]pyridin-4-yl)-3-methyl-4,5,6,7-tetrahydro-1H-pyrazolo[4,3-c]pyridin-1-yl)methyl)bicyclo[2.2.2]octan-1-yl)amino)methyl)oxetan-3-yl)methanol]: the IC50 was 72 nM.

On to `Cc1nc(N2CCc3c(c(C)nn3CC34CCC(N(C5CCC5)C5CCC5)(CC3)CC4)C2)c2c(n1)c(C)nn2C` [compound 28, N,N-dicyclobutyl-4-((3-methyl-5-(1,3,5-trimethyl-1H-pyrazolo[4,3-d]pyrimidin-7-yl)-4,5,6,7-tetrahydro-1H-pyrazolo[4,3-c]pyridin-1-yl)methyl)bicyclo[2.2.2]octan-1-amine], for which the IC50 is 840 nM.

`Cc1cc(N2CCc3c(c(C)nn3CC34CCC(NC(=O)CCN)(CC3)CC4)C2)c2cnn(C)c2n1` [compound 115, 3-amino-N-(4-((5-(1,6-dimethyl-1H-pyrazolo[3,4-b]pyridin-4-yl)-3-methyl-4,5,6,7-tetrahydro-1H-pyrazolo[4,3-c]pyridin-1-yl)methyl)bicyclo[2.2.2]octan-1-yl)propanamide]: the half-inhibitory concentration (IC50) worked out at 10 nM.

As for `CCn1ncc2c(N3CCc4c(c(C)nn4CC45CCC(NC(=O)[C@@H]6COCCN6)(CC4)CC5)C3)cc(C)nc21` [compound 141, (S)-N-(4-((5-(1-ethyl-6-methyl-1H-pyrazolo[3,4-b]pyridin-4-yl)-3-methyl-4,5,6,7-tetrahydro-1H-pyrazolo[4,3-c]pyridin-1-yl)methyl)bicyclo[2.2.2]octan-1-yl)morpholine-3-carboxamide], the IC50 worked out at 32 nM.

As to `Cc1cc(N2CCc3c(c(C)nn3CC34CCC(NC(=O)C5CNCCO5)(CC3)CC4)C2)c2cnn(C)c2n1` (centres unmarked) [compound 125, N-(4-((5-(1,6-dimethyl-1H-pyrazolo[3,4-b]pyridin-4-yl)-3-methyl-4,5,6,7-tetrahydro-1H-pyrazolo[4,3-c]pyridin-1-yl)methyl)bicyclo[2.2.2]octan-1-yl)morpholine-2-carboxamide], the IC50 amounted to 4 nM.

Regarding `[2H]C([2H])([2H])N(CC(=O)NC12CCC(Cn3nc(C)c4c3CCN(c3cc(C)nc5c3cnn5C)C4)(CC1)CC2)C([2H])([2H])[2H]` [compound 134, 2-(bis(trideuteromethyl)amino)-N-(4-((5-(1,6-dimethyl-1H-pyrazolo[3,4-b]pyridin-4-yl)-3-methyl-4,5,6,7-tetrahydro-1H-pyrazolo[4,3-c]pyridin-1-yl)methyl)bicyclo[2.2.2]octan-1-yl)acetamide], the IC50 was 1 nM.

As for `Cc1cc(N2CCc3c(c(C)nn3CC34CCC(NC(=O)OC(C)(C)C)(CC3)CC4)C2)c2ccncc2n1` [Compound No. 147, tert-butyl (4-((3-methyl-5-(2-methyl-1,7-naphthyridin-4-yl)-4,5,6,7-tetrahydro-1H-pyrazolo[4,3-c]pyridin-1-yl)methyl)bicyclo[2.2.2]octan-1-yl)carbamate], the IC50 is 33 nM.

As to `Cn1ncc2c(N3CCc4c(cnn4CC45CCC(N)(CC4)CC5)C3)nc(N)nc21` [compound 11, 4-(1-((4-aminobicyclo[2.2.2]octan-1-yl)methyl)-6,7-dihydro-1H-pyrazolo[4,3-c]pyridin-5(4H)-yl)-1-methyl-1H-pyrazolo[3,4-d]pyrimidin-6-amine], the IC50 is 318 nM.

On to `Cc1nc(N2CCc3c(c(C)nn3CC34CCC(N)(CC3)CC4)C2)c2c(n1)c(C)nn2C` [Compound No. 26, 4-((3-methyl-5-(1,3,5-trimethyl-1H-pyrazolo[4,3-d]pyrimidin-7-yl)-4,5,6,7-tetrahydro-1H-pyrazolo[4,3-c]pyridin-1-yl)methyl)bicyclo[2.2.2]octan-1-amine], for which the IC50 is 644 nM.

Turning to `Cc1nc(N2CCc3c(c(C)nn3CC34CCC(N5CCOCC5)(CC3)CC4)C2)c2c(C)noc2n1` [compound 37, 3,6-dimethyl-4-(3-methyl-1-((4-morpholinobicyclo[2.2.2]octan-1-yl)methyl)-6,7-dihydro-1H-pyrazolo[4,3-c]pyridin-5(4H)-yl)isoxazolo[5,4-d]pyrimidine], the IC50 was found to be 159 nM.

The values above are taken from patent publication US20240376099A1, “COMPOUNDS AND COMPOSITIONS AS INHIBITORS OF ENDOSOMAL TOLL-LIKE RECEPTORS” (Novartis AG, priority 2016, published 2024).
